Measurements as given in ChEMBL document CHEMBL1201862, “PubChem BioAssay data set” (2004).
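Protocol summary: plate cells (96-well), add compound at 5 concentrations, incubate 48 h, interpolate endpoints linearly. The concentration for 50% growth inhibition is given as GI50.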 The source made the active and inactive calls. Cut-off read from the data, not from the text of the source: active = GI50 up to about 1.1 µM and inactive = higher.

Legend:
Assay in all cases: DTP human tumour cell line panel, 48 h
[1] = test system: K562
[2] = test system: NCI-H460
[3] = test system: OVCAR-3
[4] = test system: RPMI-8226
[5] = test system: SK-MEL-2
[6] = test system: M14
[7] = test system: NCI-H522
[8] = test system: IGROV-1
[9] = test system: COLO 205
[10] = test system: A498
[11] = test system: OVCAR-5
[12] = test system: SW-620
[13] = test system: U-251
[14] = test system: SN12C
[15] = test system: HOP-62
[16] = test system: SNB-75

Measured: GI50

CC1=NN(C(=O)Cc2ccccc2)C(=O)/C1=C\c1ccc([N+](=O)[O-])cc1
inactive: [1] > 100 µM | [2] > 100 µM | [3] > 100 µM | [4] > 100 µM | [5] > 100 µM | [6] > 100 µM | [7] > 100 µM | [8] > 100 µM | [9] > 100 µM | [10] > 100 µM | [11] > 100 µM | [12] > 100 µM | [13] > 100 µM | [14] > 100 µM | [15] > 100 µM

N#CCN1C(=O)c2cc([N+](=O)[O-])cc3cc([N+](=O)[O-])cc(c23)C1=O
inactive: [1] 5.68 µM | [2] 14.9 µM | [3] 13.4 µM | [4] 5.51 µM | [5] 3.94 µM | [6] 17 µM | [8] 13.2 µM | [9] 11.4 µM | [10] 35.6 µM | [11] 18.9 µM | [12] 7.53 µM | [13] 17.9 µM | [14] 13.1 µM | [15] 18.8 µM | [16] 26.1 µM

COC(=O)N/N=C(/CCC(=O)Nc1ccc(C)c(C)c1)CC(=O)C(C)(C)C
inactive: [1] > 100 µM | [2] > 100 µM | [3] > 100 µM | [4] > 100 µM | [5] > 100 µM | [6] > 100 µM | [7] > 100 µM | [8] > 100 µM | [9] > 100 µM | [11] > 100 µM | [12] > 100 µM | [13] > 100 µM | [14] > 100 µM | [15] > 100 µM | [16] > 100 µM

CCOC(=O)C1=C(C)N(c2ccc(C)cc2)C2=C(C(=O)N(c3ccccc3)C2c2ccccc2)C1c1ccccc1 (centres undefined)
inactive: [1] 19.8 µM | [2] 13.3 µM | [3] > 25 µM | [4] 14 µM | [5] > 25 µM | [6] > 25 µM | [8] > 25 µM | [9] > 25 µM | [10] > 25 µM | [12] > 25 µM | [13] > 25 µM | [14] > 25 µM | [15] > 25 µM | [16] 1.51 µM

CCOC(=O)c1[nH]c(COC(C)=O)c(CCCOC(C)=O)c1CCCOC(C)=O
inactive: [1] > 100 µM | [2] > 100 µM | [3] > 100 µM | [5] > 100 µM | [7] 23 µM | [8] > 100 µM | [9] > 100 µM | [10] > 100 µM | [11] > 100 µM | [12] > 100 µM | [13] > 100 µM | [14] > 100 µM | [15] > 100 µM

CC1=CC=C2C(C)(C)CC[C@@H]3OC(=O)[C@H]1[C@]23C
inactive: [1] > 100 µM | [3] > 100 µM | [5] 15.5 µM | [6] > 100 µM | [7] > 100 µM | [8] > 100 µM | [9] > 100 µM | [10] > 100 µM | [11] > 100 µM | [12] > 100 µM | [13] > 100 µM | [14] > 100 µM | [15] > 100 µM | [16] > 100 µM

O=C1C2C=CC(n3[nH]c(=O)n(Cc4ccccc4)c3=O)CC2C(=O)N1c1cccc(Cl)c1 (centres undefined)
inactive: [1] > 100 µM | [2] > 100 µM | [3] > 100 µM | [5] > 100 µM | [6] > 100 µM | [7] > 100 µM | [8] > 100 µM | [9] > 100 µM | [10] > 100 µM | [11] > 100 µM | [12] > 100 µM | [13] > 100 µM | [14] > 100 µM | [15] > 100 µM | [16] > 100 µM

N#CC(C#N)=CSc1ccccc1
inactive: [1] 80.7 µM | [2] 34 µM | [3] 34.4 µM | [4] 48 µM | [5] 18.7 µM | [6] 22.9 µM | [7] 11.8 µM | [8] 17.3 µM | [9] 24.5 µM | [11] 26.3 µM | [12] 32.4 µM | [13] 16.5 µM | [14] 19.6 µM | [15] 55 µM | [16] 24.1 µM

COc1ccc(/C=C/c2nnc(S)[nH]2)cc1OC
inactive: [1] > 100 µM | [2] > 100 µM | [3] > 100 µM | [4] > 100 µM | [5] > 100 µM | [6] > 100 µM | [8] > 100 µM | [10] > 100 µM | [11] > 100 µM | [12] > 100 µM | [13] > 100 µM | [14] > 100 µM | [16] > 100 µM

O=C1C(Cl)C(c2cc(Br)cc(Br)c2O)N1n1cnc2ccccc2c1=O (centres undefined)
inactive: [1] 26.2 µM | [2] 12.6 µM | [3] 22.3 µM | [4] 12.6 µM | [5] 21.1 µM | [6] 18.3 µM | [7] 19 µM | [8] 23.4 µM | [9] 29.2 µM | [11] 19.4 µM | [12] 35.8 µM | [13] 6.35 µM | [14] 27.5 µM | [15] 24.3 µM | [16] 25.3 µM
